In patent publication US10676501B2, “Hydrogel materials incorporating eluting ceragenin compound” (BRIGHAM YOUNG UNIVERSITY, priority 2011, dated 2020):
Converted amounts (≈) assume the structure as drawn.

Columns and labels:
[1] = Elution of CSA-138 from contact lenses without bacteria, quantified by scintillation counting; assay type: physicochemical
Description: To decrease the detection limit for CSA-138, we prepared a radiolabeled version of CSA-138 (CSA-138T2), incorporated it into contact lenses, and quantified its elution from lenses using scintillation counting.
Lenses containing 1% CSA-138 were stored in 0.5 mL phosphate buffered saline (PBS) prior to testing. One set of lenses was autoclaved for 45 min before elution studies were performed. For elution studies, lenses were suspended in 2 ml aliquots of PBS, 10% TSB growth medium, 10% TSB growth medium containing 10^6 CFU of Staphylococcus aureus, or 10% TSB growth medium containing 10^6 CFU of Pseudomonas aeruginosa. Corresponding aliquots were exchanged every 24 h, including bacterial inocula. Samples were removed every 24 h and analyzed for the presence of CSA-138 using scintillation counting. A standard curve was generated to correlate counts per minute to concentration of CSA-138. All experiments were performed in triplicate.

[2] = tested on: S. aureus; assay: MIC against S. aureus; assay type: cell-based
[3] = Elution of CSA-138 from contact lens hydrogel, quantified by LC/MS; assay type: physicochemical; settings: lenses with CSA-138 incorporated at 1%; LC/MS detection limit about 2 μg/ml
Description: To better understand the mechanism by which ceragenin compounds can be eluted from a hydrogel to prevent bacterial colonization, we determined the rate at which CSA-138 elutes from a hydrogel suitable for use in contact lenses. To quantify the amount of ceragenin eluting from the hydrogel, we used LC/MS using a mass-labeled internal standard. However, this method only gave detection limits of about 2 μg/ml, and we were able to effectively kill bacteria at constant elution rates below the detection limit.

[4] = tested on: P. aeruginosa; assay: MIC against P. aeruginosa; assay type: cell-based
[5] = tested on: S. aureus; settings: elution from lenses, inocula 10^6 CFU, consecutive days; cited from earlier work
[6] = tested on: P. aeruginosa; settings: elution from lenses, inocula 10^6 CFU; cited from earlier work

elution profile in 10% TSB in PBS ([1]; 10% TSB in PBS, compared with PBS (FIG. 5))	SMILES	MIC [2]	time until elution fell below detection limits [3]	initial amount of material that eluted ([1]; lenses autoclaved 45 min before the study, compared with non-autoclaved (FIG. 4))	elution on the first day ([1]; lenses containing 1% CSA-138 in 2 ml PBS, day 1 (FIG. 3))	MIC [4]	duration for which colonization is prevented [5]	duration for which colonization is prevented [6]
elution decreased	CCCCCCCCNCCC[C@@H](C)[C@H]1CC[C@H]2[C@@H]3[C@H](OCCCN)C[C@@H]4C[C@H](OCCCN)CC[C@]4(C)[C@H]3C[C@H](OCCCN)[C@]12C [CSA-13]	–	–	–	–	–	–	–
–	CCCCCCCCCCCCCNCCC[C@@H](C)[C@H]1CC[C@H]2[C@@H]3[C@H](OCCCN)C[C@@H]4C[C@H](OCCCN)CC[C@]4(C)[C@H]3C[C@H](OCCCN)[C@]12C [CSA-138]	0.5 µg/mL (≈ 0.669 µM)	five	decreased somewhat	about 2.2 μg/ml	1.0 µg/mL (≈ 1.34 µM)	30 days	19 days
